Assay results: US9688702B2, “Alpha-amino boronic acid derivatives, selective immunoproteasome inhibitors” (Ares Trading S.A, priority 2011, dated 2017)

Legend:
[1] = target: Beta5 (purified human constitutive proteasome) (Homo sapiens, UniProt P28074); experiment: Determination of Beta5 activity (fluorescence intensity assay, Suc-LLVY-AMC); assay type: biochemical; conditions: purified human constitutive proteasome 1.0 nM, 40 μM Suc-LLVY-AMC, 37° C.
Method: Measurement of Beta5 inhibition is performed in 384 well format based on fluorescence intensity assay.
(§1) Purified human constitutive proteasome (1.0 nM) and serial diluted compounds in DMSO (range of concentrations from 10 μM to 38 pM) or controls (0.5% DMSO) are incubated for 30 minutes at 37° C. in assay buffer containing 50 mM Tris pH 7.4 and 0.03% SDS. The reaction is initiated by the addition of the fluorogenic peptide substrate, Suc-LLVY-AMC (Bachem 1-1395), at a concentration of 40 μM. After 90 minutes of incubation at 37° C., fluorescence intensity is measured at λex=350 nm and λem=450 nm with a fluorescence reader (BMG Pherastar reader or equivalent).

[2] = target: LMP7 (purified human immuno proteasome) (Homo sapiens, UniProt P28062); experiment: Determination of LMP7 activity (fluorescence intensity assay, Suc-LLVY-AMC); assay type: biochemical; conditions: for IC50: 40 μM Suc-LLVY-AMC, 37° C.
Method: Measurement of LMP7 inhibition is performed in 384 well format based on fluorescence intensity assay.
as §1, with “immuno” for “constitutive”, “(0.5” for “(1.0”, “I-1395),” for “1-1395),”
as §1, with “immuno” for “constitutive”, “(0.25” for “(1.0”, “I-1395),” for “1-1395),”

[3] = purified human immuno proteasome 0.5 nM
[4] = purified human immuno proteasome 0.25 nM (examples 79, 80, 83, 84, 85, 87, 88, 89, 90, 91, 93, 94, 96, 97, 101 and 110)

Row | SMILES | IC50 [1] | Selectivity LMP7 vs Beta5 [2] | IC50 [2, 3] | IC50 [2, 4]
1 | O=C(CCC(=O)c1ccc2ccccc2c1)N[C@@H](Cc1ccsc1)B(O)O [Example 21, [(1R)-1-{[4-(2-naphthyl)-4-oxobutanoyl]amino}-2-(3-thienyl)ethyl]boronic acid] | 500 to 5000 nM | ++ (++: 10 < Selectivity < 30) | 50 to 500 nM | –
2 | CCc1cccc(C[C@H](NC(=O)CCC(=O)c2ccccc2OC)B(O)O)c1 [Example 8, ((1R)-2-(3-ethylphenyl)-1-{[4-(2-methoxyphenyl)-4-oxobutanoyl]amino}ethyl)boronic acid] | > 5000 nM | – | 50 to 500 nM | –
3 | CCc1cccc(C[C@H](NC(=O)CCn2cc(-c3ccccc3OC)nn2)B(O)O)c1 [Example 73, (R)-(2-(3-ethylphenyl)-1-(3-(4-(2-methoxyphenyl)-1H-1,2,3-triazol-1-yl)propanamido)ethyl)boronic acid] | 50 to 500 nM | +++ (+++: Selectivity > 30) | < 50 nM | –
4 | COc1ccc2occ(C[C@H](NC(C)=O)B(O)O)c2c1 [Example 108, (R)-(1-acetamido-2-(5-methoxybenzofuran-3-yl)ethyl)boronic acid] | > 5000 nM | + (+: Selectivity < 10) | > 5000 nM | –
5 | CCc1cccc(C[C@H](NC(=O)CCc2cn(-c3ccccc3)nn2)B(O)O)c1 [Example 58, (R)-(2-(3-ethylphenyl)-1-(3-(1-phenyl-1H-1,2,3-triazol-4-yl)propanamido)ethyl)boronic acid] | > 5000 nM | +++ (+++: Selectivity > 30) | 50 to 500 nM | –
6 | O=C(CCn1cc(-c2ccccc2)nn1)N[C@@H](Cc1csc2ccccc12)B(O)O [Example 104, (R)-(2-(benzo[b]thiophen-3-yl)-1-(3-(4-phenyl-1H-1,2,3-triazol-1-yl)propanamido)ethyl)boronic acid] | < 50 nM | + (+: Selectivity < 10) | < 50 nM | –
7 | O=C(CCc1noc(-c2ccccc2)n1)N[C@@H](Cc1ccsc1)B(O)O [Example 37, [(1R)-1-{[3-(5-phenyl-1,2,4-oxadiazol-3-yl)propanoyl]amino}-2-(3-thienyl)ethyl]boronic acid] | 500 to 5000 nM | ++ (++: 10 < Selectivity < 30) | 50 to 500 nM | –
8 | O=C(CCn1nnc2ccccc21)N[C@@H](Cc1ccsc1)B(O)O [Example 35, [(1R)-1-{[3-(1H-1,2,3-benzotriazol-1-yl)propanoyl]amino}-2-(3-thienyl)ethyl]boronic acid] | 50 to 500 nM | + (+: Selectivity < 10) | < 50 nM | –
9 | Cc1nc2ccccc2n1CCC(=O)N[C@@H](Cc1ccsc1)B(O)O [Example 55, (R)-(1-(3-(2-methyl-1H-benzo[d]imidazol-1-yl)propanamido)-2-(thiophen-3-yl)ethyl)boronic acid] | 50 to 500 nM | + (+: Selectivity < 10) | < 50 nM | –
10 | Cn1ncc2cc(C[C@H](NC(=O)CCn3c(=O)sc4ccccc43)B(O)O)ccc21 [Example 102, (R)-(2-(1-methyl-1H-indazol-5-yl)-1-(3-(2-oxobenzo[d]thiazol-3(2H)-yl)propanamido)ethyl)boronic acid] | < 50 nM | ++ (++: 10 < Selectivity < 30) | < 50 nM | –
11 | O=C(CCn1cnc2ccccc21)N[C@@H](Cc1csc2ccccc12)B(O)O [Example 106, (R)-(1-(3-(1H-benzo[d]imidazol-1-yl)propanamido)-2-(benzo[b]thiophen-3-yl)ethyl)boronic acid] | < 50 nM | ++ (++: 10 < Selectivity < 30) | < 50 nM | –
12 | CCc1cccc(C[C@H](NC(=O)CCn2cnc3ccccc32)B(O)O)c1 [Example 29, [(1R)-1-{[3-(1H-benzimidazol-1-yl)propanoyl]amino}-2-(3-ethylphenyl)ethyl]boronic acid] | 50 to 500 nM | ++ (++: 10 < Selectivity < 30) | < 50 nM | –
13 | O=C(CCn1c(=O)sc2ccccc21)N[C@@H](Cc1ccsc1)B(O)O [Example 34, [(1R)-1-{[3-(2-oxo-1,3-benzothiazol-3(2H)-yl)propanoyl]amino}-2-(3-thienyl)ethyl]boronic acid] | 50 to 500 nM | + (+: Selectivity < 10) | < 50 nM | –
14 | COc1ccc(-n2cc(CCC(=O)N[C@@H](Cc3coc4ccccc34)B(O)O)nn2)cc1 [Example 90, (R)-(2-(benzofuran-3-yl)-1-(3-(1-(4-methoxyphenyl)-1H-1,2,3-triazol-4-yl)propanamido)ethyl)boronic acid] | < 50 nM | +++ (+++: Selectivity > 30) | – | < 50 nM
15 | O=C(CCn1cnc2ccccc21)N[C@@H](Cc1cccc(C(F)(F)F)c1)B(O)O [Example 38, {(1R)-1-{[3-(1H-benzimidazol-1-yl)propanoyl]amino}-2-[3-(trifluoromethyl)phenyl]ethyl}boronic acid] | 50 to 500 nM | ++ (++: 10 < Selectivity < 30) | < 50 nM | –
16 | COc1ccc2occ(C[C@H](NC(=O)CCn3c(=O)sc4ccccc43)B(O)O)c2c1 [Example 109, (R)-(2-(5-methoxybenzofuran-3-yl)-1-(3-(2-oxobenzo[d]thiazol-3(2H)-yl)propanamido)ethyl)boronic acid] | 50 to 500 nM | + (+: Selectivity < 10) | < 50 nM | –
17 | O=C(N[C@@H](Cc1ccsc1)B(O)O)[C@H]1CCC[C@@H]1C(=O)c1ccccc1 (racemic) [Example 5, [1-({[(1RS,2SR)-2-benzoylcyclopentyl]carbonyl}amino)-2-(3-thienyl)ethyl]boronic acid] | > 5000 nM | – | 500 to 5000 nM | –
18 | CCc1cccc(C[C@H](NC(=O)[C@@H](CC(=O)c2ccccc2)c2ccc(Cl)cc2)B(O)O)c1 (single isomer, unassigned) [Example 16] | > 5000 nM | – | 500 to 5000 nM | –
19 | CC(=O)N[C@@H](Cc1coc2ccccc12)B(O)O [Example 78, (R)-(1-acetamido-2-(benzofuran-3-yl)ethyl)boronic acid] | 500 to 5000 nM | +++ (+++: Selectivity > 30) | < 50 nM | –
20 | O=C(CCn1c(=O)sc2ccccc21)N[C@@H](Cc1ccc2ccccc2c1)B(O)O [Example 96, (R)-(2-(naphthalen-2-yl)-1-(3-(2-oxobenzo[d]thiazol-3(2H)-yl)propanamido)ethyl)boronic acid] | < 50 nM | +++ (+++: Selectivity > 30) | – | < 50 nM
21 | CCc1cccc(C[C@H](NC(=O)CCn2c(C)nc3ccccc32)B(O)O)c1 [Example 54, (R)-(2-(3-ethylphenyl)-1-(3-(2-methyl-1H-benzo[d]imidazol-1-yl)propanamido)ethyl)boronic acid] | 50 to 500 nM | ++ (++: 10 < Selectivity < 30) | < 50 nM | –
22 | O=C(CCn1c(=O)sc2ccccc21)N[C@@H](Cc1coc2ccccc12)B(O)O [Example 87, (R)-(2-(benzofuran-3-yl)-1-(3-(2-oxobenzo[d]thiazol-3(2H)-yl)propanamido)ethyl)boronic acid] | < 50 nM | ++ (++: 10 < Selectivity < 30) | – | < 50 nM
23 | O=C(CCC(=O)c1cccc(-c2ccccc2)n1)N[C@@H](Cc1ccsc1)B(O)O [Example 23, [(1R)-1-{[4-oxo-4-(6-phenylpyridin-2-yl)butanoyl]amino}-2-(3-thienyl)ethyl]boronic acid] | 500 to 5000 nM | ++ (++: 10 < Selectivity < 30) | 50 to 500 nM | –
24 | O=C(CCn1cnc2ccccc21)N[C@@H](Cc1ccc2ccccc2c1)B(O)O [Example 97, (R)-(1-(3-(1H-benzo[d]imidazol-1-yl)propanamido)-2-(naphthalen-2-yl)ethyl)boronic acid] | < 50 nM | ++ (++: 10 < Selectivity < 30) | – | < 50 nM
25 | CC(=O)N[C@@H](Cc1ccc2ccccc2c1)B(O)O [Example 95, (R)-(1-acetamido-2-(naphthalen-2-yl)ethyl)boronic acid] | 500 to 5000 nM | +++ (+++: Selectivity > 30) | 50 to 500 nM | –
26 | COc1ccc(C(=O)CCC(=O)N[C@@H](Cc2ccsc2)B(O)O)cc1 [Example 9, [(1R)-1-{[4-(4-methoxyphenyl)-4-oxobutanoyl]amino}-2-(3-thienyl)ethyl]boronic acid] | 500 to 5000 nM | ++ (++: 10 < Selectivity < 30) | 50 to 500 nM | –
